The values that follow are results of earlier work, collected in patent US20250066696A1, “A STABLE BLEACH COMPOSITION” (Conopco Inc., d/b/a UNILEVER, priority 2021, published 2025).

As a reminder, the pKa is the negative logarithm of the acid dissociation constant. Take `CCCCC(C)CCC(=O)O` (stereo not shown) [4-methyl octanoic acid]: the pKa was 5.23.
